In one series the test system is Ebola trVLP replication. Nature of the series: microbe, parasite or virus in culture. The class given is cell-based, Ebola virus (EBOV).
The next series relates to EBOV GP. The class given is cell-based, Ebola virus (EBOV).
The subject of the next series is VP40. The class given is cell-based, Ebola virus (EBOV).
Series [1] has as its system tetracistronic minigenome RNA incorporated into trVLPs. The class given is cell-based, Ebola virus (EBOV).
In another series the test system is dengue virus. The class given is cell-based.
A further series concerns rhinovirus. The class given is cell-based.
Another series concerns HEK293T cells. The conditions noted are these: human.
The nature of series [2]: in vitro. Conditions: human.
A short description of series [3]: in vitro. The conditions noted are these: human. This is another data set of the same source.

We go through 16 molecules from article PMC7118351 (BMB Reports, 2020).

Structures can show the parent of a compound that is named as a salt. Where two headings read alike, the source gives them in different places.

For orientation: EC50 means the concentration that produces a half-maximal response. A lower EC50 goes with higher potency in that assay.

Take `O=C(c1ccc(OCCN2CCCCC2)cc1)c1c(-c2ccc(O)cc2)sc2cc(O)ccc12` [Raloxifene, raloxifene hydrochloride]: in the series on Ebola trVLP replication, the “SI (selectivity index, ratio of CC50 to EC50)” value is 47.1 ± 2.2. In addition, the “reduction of the number of GP-positive spots” value (“reduction” for short) in the series on EBOV GP is 69.1%. Besides, the “VP40 protein level (Western blot)” value in the series with VP40 is “downregulated in a dose-dependent manner”. The “amount of negative-sense minigenome RNA incorporated into trVLPs” value (“amount” below) in series [1] is “suppression of the amount of negative-sense minigenome RNA incorporated into trVLPs in a dose-dependent manner”. Moreover, the “viral inhibition in cells” value with dengue virus and in the series with rhinovirus was “no viral inhibition” in each case. Also, the CC50 in the series on HEK293T cells amounted to 25.6 ± 0.2 µM; in the series “in vitro [2]”, 13.9 µM; in “in vitro [3]”, 23.4 µM.

With `CC(C)(N)C(=O)N[C@H](COCc1ccccc1)C(=O)N1CCC2(CC1)CN(S(C)(=O)=O)c1ccccc12` [Ibutamoren mesylate, ibutamoren mesylate], in the series on Ebola trVLP replication, the concentration giving a half-maximal response (EC50) is below 0.4 µM; the “S.I. (selectivity index)” value is listed as 222.8; the “SI (selectivity index, ratio of CC50 to EC50)” value is given as above 81.1. The 50% effective concentration (EC50) with Ebola trVLP replication (Zaire ebolavirus, HEK-293T) was 0.2 µM. Also, the “reduction” value with EBOV GP amounted to 74.2%. Moreover, in the series with VP40, the “VP40 protein level (Western blot)” value is given as “downregulated in a dose-dependent manner”. Also, the “amount” value in series [1] is “suppression of the amount of negative-sense minigenome RNA incorporated into trVLPs in a dose-dependent manner”. This molecule also returned a CC50 in the series with HEK293T cells above 30 µM. The CC50 in “in vitro [3]” was 76.7 µM.

In the case of `NC(=O)c1ncn([C@@H]2O[C@H](CO)[C@@H](O)[C@H]2O)n1` [RBV, ribavirin], in the series with Ebola trVLP replication, the response was half-maximal at 4.1 ± 2.1 µM (EC50) and the “SI (selectivity index, ratio of CC50 to EC50)” value was above 16.3. Moreover, in the series with EBOV GP, the “reduction” value was determined as 62.5%. Further, the “VP40 protein level (Western blot)” value with VP40 is “downregulated in a dose-dependent manner”. Moreover, the CC50 with HEK293T cells is above 90 µM.

With `OCCN1CCN(CCCN2c3ccccc3Sc3ccc(Cl)cc32)CC1` [Perphenazine], in the series with Ebola trVLP replication, the “SI (selectivity index, ratio of CC50 to EC50)” value is reported as 27.7 ± 9.2. Moreover, the EC50 with Ebola trVLP replication (Zaire ebolavirus, HEK-293T) amounted to 0.7 ± 0.2 µM. The molecule also had a CC50 in “in vitro [2]” of 17.4 ± 0.6 µM.

`CN1CCCN(C(c2ccccc2)c2ccc(Cl)cc2)CC1` (centres unmarked) [Homochlorcyclizine]: the “SI (selectivity index, ratio of CC50 to EC50)” value with Ebola trVLP replication was above 37.1. Further, it took 0.8 µM to reach a half-maximal effect with Ebola trVLP replication (Zaire ebolavirus, HEK-293T) (EC50). The molecule also had a CC50 in the series “in vitro [2]” above 30 µM.

Regarding `Cc1[nH]c(/C=C2\C(=O)Nc3ccc(S(=O)(=O)N(C)c4cccc(Cl)c4)cc32)c(C)c1C(=O)N1CCN(C)CC1` [SU11274], the “SI (selectivity index, ratio of CC50 to EC50)” value in the series on Ebola trVLP replication is above 13.6. Also, in the series with Ebola trVLP replication (Zaire ebolavirus, HEK-293T), a half-maximal effect (EC50) was put at 2.6 ± 1.4 µM. Also, the CC50 in “in vitro [2]” is above 30 µM.

For `O=C1NCCN1CCN1CCC(c2cn(-c3ccc(F)cc3)c3ccc(Cl)cc23)CC1` [Sertindole], in the series with Ebola trVLP replication, the “SI (selectivity index, ratio of CC50 to EC50)” value is listed as above 45.8. Also, the “reduction” value with EBOV GP is on record as 84.7%. Moreover, the “VP40 protein level (Western blot)” value with VP40 was “downregulated in a dose-dependent manner”. Besides, the “amount” value in series [1] was “suppression of the amount of negative-sense minigenome RNA incorporated into trVLPs in a dose-dependent manner”. Besides, the “viral inhibition in cells” value with dengue virus and in the series on rhinovirus was “no viral inhibition” each time. For the same molecule, the CC50 in the series with HEK293T cells is above 30 µM; in the series “in vitro [2]” it was 23.1 µM; in “in vitro [3]”, 13.7 µM.

On to `CN(C)CCCN1c2ccccc2Sc2ccc(C(F)(F)F)cc21` [Triflupromazine], for which the “SI (selectivity index, ratio of CC50 to EC50)” value in the series with Ebola trVLP replication is reported as above 23.8. This molecule gave an EC50 in the series with Ebola trVLP replication (Zaire ebolavirus, HEK-293T) of 1.4 ± 0.5 µM. The molecule further yielded a CC50 in the series “in vitro [2]” above 30 µM.

In the series “in vitro [2]”, `CNCCCC12CCC(c3ccccc31)c1ccccc12` [Maprotiline] came in with a CC50 of 25.1 ± 2.1 µM.

Consider `CN1[C@@H]2CC[C@H]1C[C@@H](OC(c1ccccc1)c1ccc(Cl)cc1)C2` (some centres unmarked) [Hit 3-CPMT, 3a-[(4-chlorophenyl)phenylmethoxy]tropane], for which the “SI (selectivity index, ratio of CC50 to EC50)” value with Ebola trVLP replication is recorded as above 26.3. The concentration for a half-maximal effect (EC50) in the series with Ebola trVLP replication (Zaire ebolavirus, HEK-293T) came out at 1.3 ± 0.5 µM. This molecule gave a CC50 in “in vitro [2]” above 30 µM.

`CC(=O)c1ccc2c(c1)N(CCCN1CCC(CCO)CC1)c1ccccc1S2` [Piperacetazine]: the “SI (selectivity index, ratio of CC50 to EC50)” value in the series on Ebola trVLP replication was determined as 15.7 ± 4.6. The molecule also had an EC50 in the series with Ebola trVLP replication (Zaire ebolavirus, HEK-293T) of 2 ± 0.6 µM. In addition, the CC50 in the series “in vitro [2]” came to 26.1 ± 5.5 µM.

Turning to `CN1CCN(C(c2ccccc2)c2ccc(Cl)cc2)CC1` (centres unmarked) [Chlorcyclizine], the “SI (selectivity index, ratio of CC50 to EC50)” value with Ebola trVLP replication was above 17.0. It took 2.7 ± 2.2 µM to reach a half-maximal effect in the series with Ebola trVLP replication (Zaire ebolavirus, HEK-293T) (EC50). Further, in the series “in vitro [2]”, the CC50 was above 30 µM.

Molecule `CN1[C@@H]2CC[C@H]1C[C@@H](OC(c1ccccc1)c1ccccc1)C2` [Benztropine mesylate] gave a CC50 in “in vitro [2]” above 30 µM.

With `CN(C)C(=O)C(CCN1CCC(O)(c2ccc(Cl)cc2)CC1)(c1ccccc1)c1ccccc1` [Loperamide], the CC50 in “in vitro [2]” was above 30 µM.

In the case of `NC(=O)c1nc(F)c[nH]c1=O` [Hit T-705, 6-flouro-3-hydroxy-2-pyrazinecarboxamide], the “SI (selectivity index, ratio of CC50 to EC50)” value in the series on Ebola trVLP replication is on record as above 13.0. The same molecule had a concentration giving a half-maximal response (EC50) in the series on Ebola trVLP replication (Zaire ebolavirus, HEK-293T) of 4.7 ± 3.1 µM. In the series “in vitro [2]”, this molecule had a CC50 above 90 µM.

`CCCC(C(=O)OCCN(CC)CC)(c1ccccc1)c1ccccc1` [Proadifen]: the “SI (selectivity index, ratio of CC50 to EC50)” value in the series on Ebola trVLP replication is above 11.6. The molecule also had an EC50 with Ebola trVLP replication (Zaire ebolavirus, HEK-293T) of 2.7 ± 0.7 µM. Also, the CC50 in “in vitro [2]” is above 30 µM.
